Article PMC6385875 (Inorganica chimica acta, 2018)

Assay: In vitro integrity of tracers in buffer at physiological pH by HPLC
Type: physicochemical
Conditions: incubated at physiological pH for up to 6 h

Substance: ^99mTc(CO)3(PMIDA) [^99mTc-1]
- in vitro stability (decomposition by HPLC): No measurable decomposition
